The results in this text go back to patent publication US20120244193A1, “PASSIVE SOLID TUMOR TARGETING ANTICANCER PRODRUG AND PREPARATION METHOD THEREOF” (priority 2009, published 2012).

Where a name gives a salt, the structure may show the parent alone.

Experiment in all cases: Inhibition of growth activity of tumor cell lines in vitro by MTT method
The subject of experiment [1] is 2780-CP. The experiment is classed as cell-based. The settings on record: equivalent to 2 mg/ml doxorubicin, drug treatment 24 hours. As for the experimental part: (§1) The passive solid tumor-targeted anticancer prodrug used in the test was prepared in the test example 1 (equivalent to 2 mg/ml doxorubicin).
(§2) Cell solution (with concentration of 50,000 cells/ml) growing in logarithmic growth phase cultured with RPMI 1640 culture medium was inoculated on a 96 well plate with 0.1 ml/well, and subject to corresponding drug treatment after incubation for 24 hours. After drug treatment for 24 hours, 0.02 ml 5 mg/ml 3-(4,5-dimethylthiazolyl-2)-2,5-diphenyltetrazolium bromide (MTT) was added for treatment for 4 hours, then culture solution was removed, 0.15 ml dimethylsulfoxide (DMSO) was added, and light absorption value was determined at 570 nm by a microplate reader.

The test system of experiment [2] is 2780-S. It is filed as cell-based. As to conditions: equivalent to 2 mg/ml doxorubicin, drug treatment 24 hours. As for the experimental part: as §1, §2
In experiment [3] the test system is A549. The experiment is classed as cell-based. The settings on record: Homo sapiens; A549, doxorubicin concentration 2 mg/ml, drug treatment 24 hours; read-out: Inhibition rate (%). How it is done: as §1, §2
Experiment [4] relates to NCI-H446. The experiment is classed as cell-based. The settings on record: Homo sapiens; NCI-H446, doxorubicin concentration 2 mg/ml, drug treatment 24 hours; read-out: Inhibition rate (%). How it is done:
as §1, §2

The test system of experiment [5] is B16. It is filed as cell-based, mouse. As to conditions: B16, equivalent to 2 mg/ml doxorubicin, drug treatment 24 hours. As for the experimental part:
as §1, §2

In general, inhibition refers to the drop in the measured response relative to a control, in per cent. Take `COc1cccc2c1C(=O)c1c(O)c3c(c(O)c1C2=O)C[C@@](O)(C(=O)CO)C[C@@H]3O[C@H]1C[C@H](N)[C@H](O)[C@H](C)O1` [doxorubicin hydrochloride]: the “Inhibition rate (%)” value in experiment [1] amounted to 49.3%; in experiment [2], 52.8%; in experiment [5] it was 85.9%. For the same compound, the inhibition at 2000 µg/mL in experiment [3] stood at 67.6%; in experiment [4], 63.3%.
